{
  "source": "ChEMBL document CHEMBL4396887",
  "about": "“Five-Membered N-Heterocyclic Scaffolds as Novel Amino Bioisosteres at γ-Aminobutyric Acid (GABA) Type A Receptors and GABA Transporters” (J Med Chem, 2019)",
  "key": {"[1]": {"target": "T1, GABA-A receptor; alpha-1/beta-2/gamma-2 (Homo sapiens) (UniProt P14867+P47870+P18507)", "experiment": "Agonist activity at recombinant human GABA-A alpha1beta2gamma2S receptor transiently expressed in human tsA201 cells incubated for 30 mins and measured up to 90 secs by FMP dye based FLIPR membrane potential blue assay", "assay_type": "cell-based"}, "[2]": {"target": "T1, GABA-A receptor; alpha-1/beta-2/gamma-2 (Homo sapiens)", "experiment": "Agonist activity at recombinant human GABA-A alpha1beta2gamma2S receptor transiently expressed in human tsA201 cells assessed as GABA-induced maximum response incubated for 30 mins and measured up to 90 secs by FMP dye based FLIPR membrane potential blue assay relative to GABA", "assay_type": "cell-based"}, "Homo sapiens [3]": {"organism": "Homo sapiens", "experiment": "Agonist activity at recombinant human GABA-A alpha3beta2gamma2S receptor transiently expressed in human tsA201 cells assessed as GABA-induced maximum response incubated for 30 mins and measured up to 90 secs by FMP dye based FLIPR membrane potential blue assay relative to GABA", "assay_type": "cell-based"}, "[4]": {"target": "T2, Gamma-aminobutyric acid receptor subunit alpha-4/beta-2/gamma-2 (Homo sapiens, UniProt P47870+P18507+P48169)", "experiment": "Agonist activity at recombinant human GABA-A alpha4beta2gamma2S receptor transiently expressed in human tsA201 cells incubated for 30 mins and measured up to 90 secs by FMP dye based FLIPR membrane potential blue assay", "assay_type": "cell-based"}, "[5]": {"target": "T2, Gamma-aminobutyric acid receptor subunit alpha-4/beta-2/gamma-2", "experiment": "Agonist activity at recombinant human GABA-A alpha4beta2gamma2S receptor transiently expressed in human tsA201 cells assessed as GABA-induced maximum response incubated for 30 mins and measured up to 90 secs by FMP dye based FLIPR membrane potential blue assay relative to GABA", "assay_type": "cell-based"}, "[6]": {"target": "Gamma-aminobutyric acid receptor subunit alpha-5/beta-2/gamma-2 (Homo sapiens) (UniProt P47870+P18507+P31644)", "experiment": "Agonist activity at recombinant human GABA-A alpha5beta2gamma2S receptor transiently expressed in human tsA201 cells assessed as GABA-induced maximum response incubated for 30 mins and measured up to 90 secs by FMP dye based FLIPR membrane potential blue assay relative to GABA", "assay_type": "cell-based"}, "[7]": {"target": "Gamma-aminobutyric acid receptor subunit rho-1 (Homo sapiens, UniProt P24046)", "sequence (P24046 whole entry)": "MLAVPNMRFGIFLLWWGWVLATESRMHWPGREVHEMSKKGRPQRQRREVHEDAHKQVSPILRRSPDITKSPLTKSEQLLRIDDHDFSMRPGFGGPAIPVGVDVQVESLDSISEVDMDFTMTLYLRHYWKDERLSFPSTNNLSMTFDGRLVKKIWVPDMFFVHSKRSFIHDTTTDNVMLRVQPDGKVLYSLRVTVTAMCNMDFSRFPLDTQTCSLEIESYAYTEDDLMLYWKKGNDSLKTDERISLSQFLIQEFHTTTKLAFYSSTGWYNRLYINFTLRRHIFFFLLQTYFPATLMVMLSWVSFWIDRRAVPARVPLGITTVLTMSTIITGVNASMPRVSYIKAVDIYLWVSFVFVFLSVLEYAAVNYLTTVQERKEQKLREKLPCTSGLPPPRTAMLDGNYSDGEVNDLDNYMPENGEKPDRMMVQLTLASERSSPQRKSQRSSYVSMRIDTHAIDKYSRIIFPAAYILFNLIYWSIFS", "experiment": "Agonist activity at recombinant human GABA-A rho-1 receptor transiently expressed in human tsA201 cells assessed as GABA-induced maximum response incubated for 30 mins and measured up to 90 secs by FMP dye based FLIPR membrane potential blue assay relative to GABA", "assay_type": "cell-based"}, "[8]": {"target": "T2, Gamma-aminobutyric acid receptor subunit alpha-4/beta-2/gamma-2", "experiment": "Agonist activity at recombinant human GABA-A alpha4beta2gamma2S receptor transiently expressed in human tsA201 cells at >= 100 uM incubated for 30 mins and measured up to 90 secs by FMP dye based FLIPR membrane potential blue assay", "assay_type": "cell-based"}, "[9]": {"target": "T1, GABA-A receptor; alpha-1/beta-2/gamma-2 (Homo sapiens)", "experiment": "Agonist activity at recombinant human GABA-A alpha1beta2gamma2S receptor transiently expressed in human tsA201 cells at >= 10 uM incubated for 30 mins and measured up to 90 secs by FMP dye based FLIPR membrane potential blue assay", "assay_type": "cell-based"}, "Homo sapiens [10]": {"organism": "Homo sapiens", "experiment": "Agonist activity at recombinant human GABA-A alpha3beta2gamma2S receptor transiently expressed in human tsA201 cells at >= 30 uM incubated for 30 mins and measured up to 90 secs by FMP dye based FLIPR membrane potential blue assay", "assay_type": "cell-based"}, "[11]": {"target": "Sodium- and chloride-dependent GABA transporter 1 (Homo sapiens, UniProt P30531)", "sequence (P30531 whole entry, looked up)": "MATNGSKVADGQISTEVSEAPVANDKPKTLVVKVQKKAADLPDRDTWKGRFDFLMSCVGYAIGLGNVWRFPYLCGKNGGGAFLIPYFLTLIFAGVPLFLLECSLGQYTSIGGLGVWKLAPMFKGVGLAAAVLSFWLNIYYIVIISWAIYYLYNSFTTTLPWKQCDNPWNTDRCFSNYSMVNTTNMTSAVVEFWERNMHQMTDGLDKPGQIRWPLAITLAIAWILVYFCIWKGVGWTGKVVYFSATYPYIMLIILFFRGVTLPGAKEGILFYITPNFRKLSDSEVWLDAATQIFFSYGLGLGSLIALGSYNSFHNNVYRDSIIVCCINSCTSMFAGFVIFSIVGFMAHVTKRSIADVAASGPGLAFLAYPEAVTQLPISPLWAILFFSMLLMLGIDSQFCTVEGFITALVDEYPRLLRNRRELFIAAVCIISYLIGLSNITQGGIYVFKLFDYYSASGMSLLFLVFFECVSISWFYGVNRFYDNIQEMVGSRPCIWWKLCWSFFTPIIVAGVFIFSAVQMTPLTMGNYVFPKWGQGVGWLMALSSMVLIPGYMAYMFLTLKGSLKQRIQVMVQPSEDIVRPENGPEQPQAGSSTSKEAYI", "experiment": "Inhibition of human GAT1 expressed in Flp-In CHO cells assessed as reduction in [3H]GABA uptake at 100 uM incubated for 3 mins by liquid scintillation counting method relative to control", "assay_type": "cell-based"}, "[12]": {"target": "T3, Sodium- and chloride-dependent GABA transporter 2 (Homo sapiens) (UniProt Q9NSD5)", "T3 sequence (whole entry)": "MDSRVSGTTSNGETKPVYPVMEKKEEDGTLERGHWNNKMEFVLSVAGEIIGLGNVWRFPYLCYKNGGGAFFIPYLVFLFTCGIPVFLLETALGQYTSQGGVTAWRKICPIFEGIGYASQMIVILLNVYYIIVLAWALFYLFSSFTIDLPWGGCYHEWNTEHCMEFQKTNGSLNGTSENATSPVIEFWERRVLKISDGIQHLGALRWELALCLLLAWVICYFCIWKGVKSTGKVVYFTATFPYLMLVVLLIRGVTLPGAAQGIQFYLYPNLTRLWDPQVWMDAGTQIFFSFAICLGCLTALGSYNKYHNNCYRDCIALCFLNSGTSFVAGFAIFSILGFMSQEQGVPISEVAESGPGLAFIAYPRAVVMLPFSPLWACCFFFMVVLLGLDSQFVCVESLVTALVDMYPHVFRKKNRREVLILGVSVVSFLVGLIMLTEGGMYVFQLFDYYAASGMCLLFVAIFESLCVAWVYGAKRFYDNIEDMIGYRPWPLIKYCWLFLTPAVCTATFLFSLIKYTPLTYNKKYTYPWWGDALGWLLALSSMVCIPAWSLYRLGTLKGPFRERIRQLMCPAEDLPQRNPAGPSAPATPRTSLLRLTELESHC", "experiment": "Inhibition of human GAT2 expressed in Flp-In CHO cells assessed as reduction in [3H]GABA uptake at 100 uM incubated for 3 mins by liquid scintillation counting method relative to control", "assay_type": "cell-based"}, "[13]": {"target": "T4, Sodium- and chloride-dependent GABA transporter 3 (Homo sapiens) (UniProt P48066)", "T4 sequence (whole entry)": "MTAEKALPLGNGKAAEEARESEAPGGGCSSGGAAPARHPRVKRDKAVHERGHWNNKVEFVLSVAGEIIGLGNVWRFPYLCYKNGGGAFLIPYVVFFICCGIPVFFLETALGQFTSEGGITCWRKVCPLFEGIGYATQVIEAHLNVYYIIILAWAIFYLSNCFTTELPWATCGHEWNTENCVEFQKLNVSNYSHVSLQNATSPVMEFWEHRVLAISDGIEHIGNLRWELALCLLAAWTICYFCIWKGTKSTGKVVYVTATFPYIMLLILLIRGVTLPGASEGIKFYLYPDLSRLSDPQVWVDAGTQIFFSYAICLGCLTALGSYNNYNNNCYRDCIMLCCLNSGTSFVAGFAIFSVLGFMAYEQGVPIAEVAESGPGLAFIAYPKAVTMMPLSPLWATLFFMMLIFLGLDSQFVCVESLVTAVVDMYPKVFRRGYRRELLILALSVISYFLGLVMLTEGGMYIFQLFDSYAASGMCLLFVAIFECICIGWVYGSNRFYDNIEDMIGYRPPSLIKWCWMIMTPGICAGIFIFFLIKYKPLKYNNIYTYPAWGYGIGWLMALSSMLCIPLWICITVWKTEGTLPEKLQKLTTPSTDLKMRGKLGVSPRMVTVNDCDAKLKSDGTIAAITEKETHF", "experiment": "Inhibition of human GAT3 expressed in Flp-In CHO cells assessed as reduction in [3H]GABA uptake at 100 uM incubated for 3 mins by liquid scintillation counting method relative to control", "assay_type": "cell-based"}, "[14]": {"target": "T5, Sodium- and chloride-dependent betaine transporter (Homo sapiens) (UniProt P48065)", "T5 sequence (whole entry)": "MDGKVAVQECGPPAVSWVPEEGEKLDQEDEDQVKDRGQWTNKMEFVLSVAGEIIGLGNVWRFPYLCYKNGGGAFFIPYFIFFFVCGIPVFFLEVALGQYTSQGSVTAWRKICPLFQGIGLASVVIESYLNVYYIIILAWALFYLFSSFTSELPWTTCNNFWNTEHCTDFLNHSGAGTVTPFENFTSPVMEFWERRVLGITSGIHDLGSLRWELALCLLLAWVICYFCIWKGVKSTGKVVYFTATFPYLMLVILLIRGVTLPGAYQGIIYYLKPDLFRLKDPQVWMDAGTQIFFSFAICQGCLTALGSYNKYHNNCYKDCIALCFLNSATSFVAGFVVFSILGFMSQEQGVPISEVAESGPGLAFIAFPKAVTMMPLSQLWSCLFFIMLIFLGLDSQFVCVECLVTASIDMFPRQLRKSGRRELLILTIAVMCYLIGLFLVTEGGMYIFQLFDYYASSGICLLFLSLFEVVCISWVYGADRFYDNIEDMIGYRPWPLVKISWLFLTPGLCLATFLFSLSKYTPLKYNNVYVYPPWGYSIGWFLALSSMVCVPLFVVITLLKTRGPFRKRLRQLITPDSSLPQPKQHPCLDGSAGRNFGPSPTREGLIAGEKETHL", "experiment": "Inhibition of human BGT1 expressed in Flp-In CHO cells assessed as reduction in [3H]GABA uptake at 100 uM incubated for 3 mins by liquid scintillation counting method relative to control", "assay_type": "cell-based"}, "Homo sapiens [15]": {"organism": "Homo sapiens"}},
  "note": "Activity calls are given as the source filed them. No cut-off for these calls is given here.",
  "data": [
    {"smiles": "CC(C(=O)O)C1CSC(N)=N1", "note": "(stereo in doubt; l-10b)", "values": [
      {"measurement": "pEC50", "setting": "[1]", "value": "inactive"},
      {"measurement": "Rmax", "setting": "[2]", "value": "inactive"},
      {"measurement": "Rmax", "setting": "Homo sapiens [3]", "value": "inactive"},
      {"measurement": "pEC50", "setting": "[4]", "value": "inactive"},
      {"measurement": "Rmax", "setting": "[5]", "value": "inactive"},
      {"measurement": "Rmax", "setting": "[6]", "value": 34, "unit": "%"},
      {"measurement": "Rmax", "setting": "[7]", "value": 31, "unit": "%"},
      {"measurement": "Activity", "setting": "[8]", "value": "Active"},
      {"measurement": "Activity", "setting": "[9]", "value": "Active"},
      {"measurement": "Activity", "setting": "Homo sapiens [10]", "value": "Active"},
      {"measurement": "inhibition", "setting": "[11]", "value": "> 30", "unit": "%"},
      {"measurement": "inhibition", "setting": "[12]", "value": "> 30", "unit": "%"},
      {"measurement": "inhibition", "setting": "[13]", "value": "> 30", "unit": "%"},
      {"measurement": "inhibition", "setting": "[14]", "value": "> 30", "unit": "%"},
      {"measurement": "pEC50", "setting": "Homo sapiens [15]", "value": "inactive"}
    ]}
  ]
}
